Data reported in US9073963B2 (Universite De Montreal, priority 2003, dated 2015).
Structures can show the parent of a compound that is named as a salt. Where two headings read alike, the source gives them in different places. Where a SMILES comes first, the peptide text is derived from it. [ ]: non-standard residue; d: D form. dCit = NC(=O)NCCC[C@@H](N)C(=O)O

How the values were obtained:
FP receptor [1] = target: T1, FP receptor (Sus scrofa, UniProt C6GAG8); experiment: Porcine retinal (ocular) microvascular contraction to PGF2α, eyecup assay; conditions: for % Inhibition: 100 nM PGF2α, compound at 100 μM
T1 construct: the porcine eyecup model, an ex vivo assay of vascular constriction in porcine retinas; from tissue; host or cells: retinal microvessels in eyecups of newborn pigs pre-treated with ibuprofen
T1 sequence (C6GAG8 1-362): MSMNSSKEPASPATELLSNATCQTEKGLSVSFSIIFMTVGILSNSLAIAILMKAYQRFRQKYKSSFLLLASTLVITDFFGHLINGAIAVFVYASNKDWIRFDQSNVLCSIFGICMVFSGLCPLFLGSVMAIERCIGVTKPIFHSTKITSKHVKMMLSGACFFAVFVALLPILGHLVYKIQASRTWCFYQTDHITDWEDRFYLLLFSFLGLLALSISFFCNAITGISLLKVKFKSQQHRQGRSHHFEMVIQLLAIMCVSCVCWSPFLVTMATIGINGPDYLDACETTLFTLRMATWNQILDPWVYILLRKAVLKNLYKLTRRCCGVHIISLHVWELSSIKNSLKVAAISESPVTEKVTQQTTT
Protocol: (§1) The preparations were allowed to stabilize for 30 min.
Percent (%) inhibition denotes porcine ocular microvessel contraction in response to 100 nM PGF2α in the presence of 0.1 mM peptide relative to that in the absence of the peptide, expressed as percentage.

FP receptor [2] = target: T1, FP receptor; experiment: as above
[3] = system: uterine strips obtained from recently-delivered mice; experiment: Contractility of mouse uterine (myometrial) strips after delivery, organ bath
Protocol: Myometrial strips (1 cm) were dissected from pregnant mice immediately after delivery (when the uterus is still non-quiescent) and suspended in organ baths containing 10 ml of KREB's buffer bubbled with 90% oxygen. Contractile responses were recorded using pressure transducers connected to a Gould polygraph.

myometrial strips [4] = experiment: Contractility of ovine myometrial strips
CD-1 mice = experiment: Endotoxin (E. coli LPS) model of mouse preterm labor
Protocol: Timed-pregnant CD-1 mice (mean gestation was 19.2 days) were purchased and at day 17, alzet pumps containing THG113 in saline were surgically implanted on the back of the animals. These pumps continuously deliver the inhibitor at 1 mg/day. E. coli lipopolysaccharide (LPS) (50 μg i. p. twice at 3 h interval) was injected on day 15.
E. coli LPS (50 μg twice three hours apart, i.p) was administered to CD-1 mice (average weight: 50 g) at gestation day 15. Four hours after LPS was administered, alzet osmotic pumps that delivered 0.1, 0.4 or 0.8 mg/Kg/day of the drug were surgically implanted on the backs of the animals. Normal gestation in this strain is 19.2 days.
E. coli LPS (50 μg twice three hours apart, i.p) was administered to CD-1 mice at gestation day 15. Alzet osmotic pumps that delivered 0.1 mg/Kg/day of the drug were surgically implanted on the backs of the animals. Normal gestation in this strain is 19.2 days.

[5] = system: TP, EP1, angiotensin AT1, endothelin receptor, alpha adrenergic receptors; experiment: Specificity in porcine ocular microvessel contractility assays, agonists of other GPCRs; conditions: 1 μM peptide
myometrial strips [6] = experiment: Contractility of bovine myometrial strips
human FP receptor [7] = target: T2, human FP receptor (Homo sapiens, UniProt P43088); experiment: Displacement of bound [3H]PGF2α in FP/293 whole cell assay; format: binding; conditions: FP/293 cells
T2 construct: expressed in transfected cells; host or cells: HEK293 (FP/293)
T2 sequence (P43088 whole entry): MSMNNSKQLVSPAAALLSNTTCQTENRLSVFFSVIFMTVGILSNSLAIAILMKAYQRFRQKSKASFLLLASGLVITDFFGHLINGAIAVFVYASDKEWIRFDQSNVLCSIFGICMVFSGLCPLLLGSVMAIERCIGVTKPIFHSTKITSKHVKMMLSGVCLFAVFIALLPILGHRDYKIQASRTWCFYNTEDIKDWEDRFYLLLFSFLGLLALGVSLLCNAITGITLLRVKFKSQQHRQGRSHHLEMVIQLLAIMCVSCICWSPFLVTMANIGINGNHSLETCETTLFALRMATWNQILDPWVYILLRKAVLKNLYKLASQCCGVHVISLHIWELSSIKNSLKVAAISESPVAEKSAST
Source text: […] Biophys. Acta 28, 251(3):363-369). […] The radioactivity on the filters was counted by scintillation spectrophotometry. For a detailed method of ligand binding and displacement, see Li at al. (1996). […] Using cloned FP/293 cells in binding assays (see Li et al. for a method of ligand displacement assay), the specific binding of THG113 to FP protein was investigated.

human FP receptor [8] = target: T2, human FP receptor; experiment: Phosphoinositide hydrolysis in FP/293 cells; format: cell-based; conditions: in the presence of 100 nM PGF2α, 30 min
Source text: The phosphoinositides were collected by anion exchange chromatography with 1 M ammonium formate/0.1 N formic acid.

human FP receptor [9] = target: T2, human FP receptor; experiment: Specific binding of [125I]-THG113 to FP/293 cells versus parent HEK293 cells; conditions: 10^5 cells, 10^6 cpm, 1 h
Protocol: [^125I]-THG113 was produced by labeling tyrosine residue with [^125I] using the lactoperoxidase method (Thorell et al. 1971 Biochim. Biophys. Acta 28, 251(3):363-369). HEK293 cells ectopically expressing cloned human FP receptor, FP/293, (10^5) were incubated with [^125I]-THG113 (10^6 cpm) for 1 h; bound and unbound ligands were separated by filtration on glass fibre filters. The radioactivity on the filters was counted by scintillation spectrophotometry. For a detailed method of ligand binding and displacement, see Li at al. (1996). […] Using cloned FP/293 cells in binding assays (see Li et al. for a method of ligand displacement assay), the specific binding of THG113 to FP protein was investigated.

C-PAF = conditions: 0.1 mM THG113
Protocol: To prepare eyecups, a circular incision was made 3-4 mm posterior to ora serrata to remove the […] and vitreous body with minimal handling of the retina. The remaining eyecup was fixed with pins to a wax base in a 20 ml tissue bath containing 20 ml of Kreb's buffer (pH 7.35-7.45) and equilibrated with 21% oxygen and 5% carbon dioxide at 37° C. The preparations were allowed to stabilize for 30 min.
The outer vessel diameter was recorded with a video camera mounted on a dissecting microscope (Zeiss M 400) and the responses were quantified by a digital image analyzer (Sigma Scan Software, Jandel Scientific, Corte Madera, Calif.). Vascular diameter was recorded before and 5 min following the topical application of the agonist.

SR Ca^2+ ATPase = experiment: Porcine microvascular contraction to BHQ (intracellular Ca2+ dynamics control); conditions: BHQ 10^−6M; 0.1 mM THG113
Protocol: as §1

[10] = system: acetylcholine (uncharacterized subtypes); experiment: Porcine microvascular contraction to acetylcholine (selectivity); conditions: agonist Acetylcholine 10^−6M; 0.1 mM THG113
Protocol: as §1

Urotensin = experiment: Porcine microvascular contraction to urotensin (selectivity); conditions: agonist Urotensin 10^−6M; 0.1 mM THG113
Protocol: as §1

FP receptor [11] = conditions: cited from earlier work

## N=C(N)NCCC[C@H](NC(=O)[C@@H]1CC[C@@H]2CC[C@H](NC(=O)Cc3ccccc3)C(=O)N21)C(=O)N[C@@H](Cc1ccccc1)C(=O)O.O=C(O)C(F)(F)F [Compound 46, (3S,6S,9S)-2-oxo-3-phenylacetamido-1-azabicyclo[4.3.0]nonane-9-carboxyl-L-argininyl-L-phenylalanine trifluoroacetate]
FP receptor [1]
  % Inhibition: 51.1%

## N=C(N)NCCC[C@H](NC(=O)[C@@H]1CC[C@@H]2CC[C@H](NC(=O)Cc3ccccc3)C(=O)N21)C(=O)N[C@H](CCc1ccccc1)CC(=O)O.O=C(O)C(F)(F)F [Compound 49, (3S,6S,9S)-2-oxo-3-phenylacetamido-1-azabicyclo[4.3.0]nonane-9-carboxyl-L-argininyl-(3′R)-3′-amino-5′-phenylpentanoic acid trifluoroacetate]
FP receptor [1]
  % Inhibition: 59.5%

## N=C(N)NCCC[C@H](NC(=O)[C@@H]1C[C@H](Cc2ccccc2)[C@@H]2CC[C@H](NC(=O)C3CCCCC3)C(=O)N12)C(=O)N[C@@H](CC(=O)O)C(=O)NCCC(c1ccccc1)c1ccccc1.O=C(O)C(F)(F)F [Compound 34, (3S,6S,7S,9S)-2-oxo-3-cyclohexanecarboxamido-7-benzyl-1-azabicyclo[4.3.0]nonane-9-carboxyl-L-argininyl-L-aspartyl-3′,3′-diphenylpropylamide trifluoroacetate]
FP receptor [2]; 100 nM PGF2α, compound at 50 μM
  % Inhibition: 63.2%

## CC[C@@H](C)[C@@H](N)C(=O)N[C@H](CC(C)C)C(=O)NCC(=O)N[C@H](Cc1c[nH]cn1)C(=O)N[C@H](CCCNC(N)=O)C(=O)N[C@H](CC(=O)O)C(=O)N[C@H](Cc1ccc(O)cc1)C(=O)N[C@H](CCCCN)C(=O)O [Compound 32] (H-[dI][dL]G[dH][dCit][dD][dY][dK]-OH; N-terminus and C-terminus assumed)
[3]; induced by 1 μM PGF2α
  uterine contractile responses (contraction duration and mean force of contraction): dose-dependent reduction
Myometrial strips [4]
  reduction of uterine contractile responses: Reductions of similar magnitude
FP receptor [2]; 1 μM peptide
  selectivity for FP receptor: selective inhibitor of FP receptor
CD-1 mice; 0.1 mg (osmotic pump)
  animals delivered within 15 h after LPS administration: less than 30%
CD-1 mice; 0.4 mg dose
  animals delivered at 48 h after LPS administration: 50-60%
CD-1 mice; 0.8 mg (osmotic pump)
  animals delivered within 15 h after LPS administration: < 15%
CD-1 mice; 0.8 mg dose
  animals delivered at 48 h after LPS administration: 50-60%
CD-1 mice; 0.1, 0.4 or 0.8 mg/Kg/day
  delay in delivery: dose-dependent delay in delivery
[5]
  vasomotor responses produced by agonists of other GPCRs, including TP and EP1: did not affect the vasomotor responses
Myometrial strips [6]
  reduction of uterine contractile responses: Reductions of similar magnitude

## N=C(N)NCCC[C@H](NC(=O)[C@@H]1CC[C@@H]2CC[C@H](NC(=O)Cc3ccccc3)C(=O)N21)C(=O)N[C@H](CC(=O)O)Cc1ccccc1 [Compound 47, (3S,6S,9S)-2-oxo-3-phenylacetamido-1-azabicyclo[4.3.0]nonane-9-carboxyl-L-argininyl-(3′S)-3′-amino-4′-phenylbutanoic acid trifluoroacetate]
FP receptor [1]
  IC50: 1.6 nM
CD-1 mice; 0.1 mg/Kg/day osmotic pump
  animals delivered within the first 15 h after endotoxin administration: Less than 25%

## CCCCC[C@H](O)/C=C/[C@@H]1[C@@H](C/C=C\CCCC(=O)O)[C@@H](O)C[C@H]1O [PGF2α, prostaglandin F2α, reference compound]
Human FP receptor [7]
  displacement of [3H]PGF2α binding: completely displaced

## N=C(N)NCCC[C@H](NC(=O)[C@@H]1CC[C@@H]2CC[C@H](NC(=O)Cc3ccccc3)C(=O)N21)C(=O)N[C@@H](CCc1ccccc1)CC(=O)O [Compound 48, (3S,6S,9S)-2-oxo-3-phenylacetamido-1-azabicyclo[4.3.0]nonane-9-carboxyl-L-argininyl-(3′S)-3′-amino-5′-phenylpentanoic acid trifluoroacetate]
FP receptor [1]
  IC50: 3.5 nM

## CC[C@@H](C)[C@@H](N)C(=O)N[C@H](CC(C)C)C(=O)NCC(=O)N[C@H](Cc1c[nH]cn1)C(=O)N[C@H](CCCNC(=N)N)C(=O)N[C@H](CC(=O)O)C(=O)N[C@H](Cc1ccc(O)cc1)C(=O)N[C@H](CCCCN)C(=O)O [Compound 1] (H-[dI][dL]G[dH][dR][dD][dY][dK]-OH; N-terminus and C-terminus assumed)
Human FP receptor [7]
  displacement of [3H]PGF2α binding: little displacement
[3]; after addition of 100 μM THG113
  time until spontaneous and PGF2α (1 μM)-induced contractile responses were diminished: ≤ 20 min
FP receptor [1]; 100 μM THG113
  contractile response to supra-physiological levels of PGF2α: failed to produce contractile response
FP receptor [1]; 0.1 mM THG113, 0.1 μM concentration of the agonists
  selectivity of inhibition among GPCR agonists: selective for FP receptor only
Human FP receptor [8]
  inhibition of PGF2α-stimulated phosphoinositide hydrolysis: dose-dependently inhibited
Human FP receptor [9]
  specific binding of [125I]-THG113 to FP/293 cells relative to parent HEK293 cells: 27 fold
C-PAF; agonist C-PAF 10^−6M
  % Inhibition: <1%
C-PAF; agonist C-PAF 10^−7M
  % Inhibition: <1%
CD-1 mice; alzet pump 1 mg/day
  animals with labor delayed past 15 h after LPS: 60%
CD-1 mice; alzet pump 1 mg/day, after LPS
  mean time of delivery: 36 h
SR Ca^2+ ATPase
  % Inhibition: <1%
[10]
  % Inhibition: <1%
Urotensin
  % Inhibition: <1%

## O=C(O)CCC/C=C\C[C@@H]1[C@@H](/C=C/[C@H](O)C2Cc3ccccc3C2)[C@@H](F)C[C@@H]1O [AL8810]
FP receptor [11]
  activity at FP receptor: weak partial agonist

## O=C(CCc1ccc(O)cc1)c1c(O)cc(O)cc1O [Phloretin]
FP receptor [11]; antagonist of FP receptor
  IC50: 20000 nM
